From patent US10030016B2 (Sunesis Pharmaceuticals, Inc., priority 2009, dated 2018)
Counter-ions that a name gives are not always drawn. Like-named read-outs stand apart in the source and are kept apart here.

Tests used:
[1] = tested on: phospho-akt (Thr308) in PC-3 cells; assay: Inhibition of phospho-akt (Thr308) in PC-3 cells, MSD phospho-akt 308 ELISA kit; assay type: cell-based
In short: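 Phospho-Akt (Thr308) levels were measured by MSD ELISA after PC-3 cells received compound for 2 hours in serum-free medium. Controls: DMSO (high), 5 μM wortmannin (low).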

PDK1 = PDK1 (Homo sapiens (Human), UniProt O15530); assay: PDK1 kinase assay (coupled PDK1/AKT/FAM-crosstide assay, IMAP fluorescence polarization); assay type: biochemical
In short: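 Coupled cascade: 0.75 nM PDK1 (51-359) → 10 nM AKT2 (140-467-PIFtide) → 100 nM FAM-crosstide. ATP 40 μM, 25° C, 30 min. IMAP FP (ex 485/em 530), 2 h binding. ΔmP vs conc, 4-param fit.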

[2] = Homo sapiens, inhibition of P308 Akt in PC-3 cells, 2 hours, no serum, MSD, read-out: EC50
[3] = inhibition of phospo-PDK1 in vitro
[4] = Homo sapiens, inhibition of P308 Akt in PC-3 cells using MSD, 2 hours, no serum, read-out: EC50
[5] = Homo sapiens, PC-3, 2 h, inhibition of P308 Akt in PC-3 cells, 2 hours, no serum, MSD, read-out: EC50

Sequence of PDK1 (O15530 51-359): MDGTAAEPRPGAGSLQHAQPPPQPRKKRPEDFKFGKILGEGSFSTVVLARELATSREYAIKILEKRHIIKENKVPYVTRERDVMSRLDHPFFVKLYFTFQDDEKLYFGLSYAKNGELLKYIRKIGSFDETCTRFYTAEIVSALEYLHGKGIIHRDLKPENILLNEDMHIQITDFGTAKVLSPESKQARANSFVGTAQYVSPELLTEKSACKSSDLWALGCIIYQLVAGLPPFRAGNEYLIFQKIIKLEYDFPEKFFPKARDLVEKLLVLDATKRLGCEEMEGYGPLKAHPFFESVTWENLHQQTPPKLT

Row | Compound | EC50 [1, 2] [nM] | IC50 (PDK1; [3]) [nM] | EC50 [1, 4] [nM] | IC50 (PDK1; inhibition of PDK1 in vitro) [nM] | other results
1 | COC(=O)C[C@@H](Nc1ncc(C#N)cc1C(=O)N[C@@H](C)c1ccc(F)cc1)c1ccc(-c2c[nH]c3ncnc(N)c23)cc1 [Example 44, (R)-methyl 3-(4-(4-amino-7H-pyrrolo[2,3-d]pyrimidin-5-yl)phenyl)-3-(5-cyano-3-((S)-1-(4-fluorophenyl)ethylcarbamoyl)pyridin-2-ylamino)propanoate] |  |  |  |  | EC50 ([1]; Homo sapiens, PC-3, 2 h): 1000 to 10000 nM; IC50 (PDK1): < 100 nM
2 | CN(C)S(=O)(=O)c1cnc(NCc2ccc(-c3ccc4ncnc(N)c4c3)s2)c(C(=O)NCc2ccc(F)c(F)c2)c1 [Example 8.7.5] | < 1000 | < 100 |  |  | 
3 | C[C@H](NC(=O)c1nc(C#N)cnc1NCC1CCC(c2cnc3[nH]nc(N)c3c2)CC1)c1ccc(F)c(F)c1 (stereo partly drawn) [Example 60, (S)-3-((4-(3-amino-1H-pyrazolo[3,4-b]pyridin-5-yl)cyclohexyl)methylamino)-6-cyano-N-(1-(3,4-difluorophenyl)ethyl)pyrazine-2-carboxamide] |  |  | < 1000 | < 100 | 
4 | C[C@H](NC(=O)c1cccnc1NCc1ccc(-c2ccn3ncnc3c2)s1)c1ccc(F)cc1 [Example 2.5, N-[(1S)-1-(4-fluorophenyl)ethyl]-2-({[5-([1,2,4]triazolo[1,5-a]pyridin-7-yl)thiophen-2-yl)methyl}amino)pyridine-3-carboxamide] |  | 1000 to 5000 |  |  | EC50 [1, 5]: > 10000 nM
5 | Nc1ncnc2ccc(-c3ccc(CNc4ncc(S(N)(=O)=O)cc4C(=O)NCc4ccc(F)c(F)c4)s3)cc12 [Example 8.7.2, 2-({[5-(4-aminoquinazolin-6-yl)thiophen-2-yl]methyl}amino)-N-(3,4-difluorobenzyl)-5-sulfamoylpyridine-3-carboxamide] | 1000 to 10000 | < 100 |  |  | 
6 | Cc1cc(-c2ccc(CNc3ncc(C(F)(F)F)cc3C(=O)NCc3ccc(F)c(F)c3)cc2)cnc1N [Example 355, 2-(4-(6-amino-5-methylpyridin-3-yl)benzylamino)-N-(3,4-difluorobenzyl)-5-(trifluoromethyl)nicotinamide] |  |  | 1000 to 10000 | < 100 | 
7 | CN(Cc1ccc(F)c(F)c1)C(=O)c1nc(C#N)cnc1NCc1ccc(-c2cnc3[nH]nc(N)c3c2)cc1 [Example 413, 3-(4-(3-amino-1H-pyrazolo[3,4-b]pyridin-5-yl)benzylamino)-6-cyano-N-(3,4-difluorobenzyl)-N-methylpyrazine-2-carboxamide] |  |  | < 1000 | < 100 | 
8 | N#Cc1cnc(NCc2ccc(-c3cnc(N)cn3)cc2)c(C(=O)NCc2cncc(F)c2)c1 [Example 312, 2-(4-(5-aminopyrazin-2-yl)benzylamino)-5-cyano-N-((5-fluoropyridin-3-yl)-methyl)nicotinamide] |  |  | < 1000 | < 100 | 
9 | O=C(NCc1ccc(F)c(F)c1)c1cccnc1NCc1cc(-c2c[nH]c3ncc(-c4ccn[nH]4)cc23)ccn1 [Example 54, 2-((4-(5-(1H-pyrazol-5-yl)-1H-pyrrolo[2,3-b]pyridin-3-yl)pyridin-2-yl)methylamino)-N-(3,4-difluorobenzyl)nicotinamide] |  |  | < 1000 | < 100 | 
10 | C[C@@H](c1ccc(F)cc1)n1cnc2ccnc(NCc3ccc(-c4ccc5ncnc(N)c5c4)s3)c2c1=O [Ex. 7.9] | < 1000 | < 100 |  |  | 
11 | C[C@H](NC(=O)c1nc(C#N)cnc1NCc1ccc(-c2cnc(N)c(O[C@H]3CCNC3)n2)cc1)c1ccc(F)c(F)c1 [Example 164, 3-{4-[5-Amino-6-((S)-pyrrolidin-3-yloxy)-pyrazin-2-yl]-benzylamino}-6-cyano-pyrazine-2-carboxylic acid [(S)-1-(3,4-difluoro-phenyl)-ethyl]-amide] |  |  | < 1000 | < 100 | 
12 | C[C@H](NC(=O)c1cc(C#N)cnc1N[C@@H](COc1ccc2[nH]c(=O)[nH]c2c1)c1ccccc1)c1ccc(F)cc1 [Example 16.10] | < 1000 | 100 to 1000 |  |  | 
13 | Nc1n[nH]c2ncc(-c3ccc(CNc4ncc(C(F)(F)F)cc4C(=O)Nc4cccnc4)cc3)cc12 [Example 289, 2-(4-(3-amino-1H-pyrazolo [3,4-b]pyridin-5-yl)benzylamino)-N-(pyridin-3-yl)-5-(trifluoromethyl) nicotinamide] |  |  | < 1000 | < 100 | 
14 | C[C@H](NC(=O)c1nc(C#N)cnc1NCc1ccc(-c2cnc(N)c(CC3CCNC3)n2)cc1)c1ccc(F)c(F)c1 (stereo partly drawn) [Example 187, 3-[4-(5-Amino-6-pyrrolidin-3-ylmethyl-pyrazin-2-yl)-benzylamino]-6-cyano-pyrazine-2-carboxylic acid [(S)-1-(3,4-difluoro-phenyl)-ethyl]-amide] |  |  | < 1000 | < 100 | 
15 | (S)-2-(4-(4-amino-7-methyl- 7H-pyrrolo[2,3-d]pyrimidin- 5-yl)benzylamino)-fluorophenyl) ethyl)nicotinamide [Example 97] |  |  |  | < 100 | EC50 ([1]; inhibition of P308 Akt in PC-3 cells using MSD, 2 hours, no serum, read-out: EC50): < 1000 nM
16 | C[C@H](NC(=O)c1cc(C#N)cnc1NCc1ccc(-c2cnc3[nH]nc(N)c3n2)cc1)c1ccc(F)cc1 [Example 183, 2-[4-(3-Amino-1H-pyrazolo [3,4-b]pyrazin-5-yl)-benzylamino]-5-cyano-N-[(S)-1-(4-fluoro-phenyl)-ethyl]-nicotinamide] |  |  | < 1000 | < 100 | 
17 | C[C@H](NC(=O)c1cccnc1NCc1ccc(-c2c[nH]c(=O)c3ccccc23)s1)c1ccc(F)cc1 [Example 2.9, (S)-N-(1-(4-fluorophenyl)ethyl)-2-(((5-(1-oxo-1,2-dihydroiso-quinolin-4-yl)thiophen-2-yl)methyl)amino)nicotinamide] |  | 1000 to 5000 |  |  | EC50 [1, 5]: 1000 to 10000 nM
18 | Nc1ncnc2ccc(-c3ccc(CNc4ncccc4C(=O)Nc4ccc(Cl)c(F)c4)s3)cc12 [Example 3.55, 2-({[5-(4-aminoquinazolin-6-yl)thiophen-2-yl]methyl}amino)-N-(4-chloro-3-fluorophenyl) pyridine-3-carboxamide (TFA salt)] | > 10000 | 100 to 1000 |  |  | 
19 | O=C(NCc1ccc(F)c(F)c1)c1cccnc1NCc1cc(-c2c[nH]c3ncccc23)ccn1 [Example 18.1, 2-((4-(1H-pyrrolo[2,3-b]pyridin-3-yl)pyridin-2-ylmethyl)amino)-N-(3,4-difluorobenzyl)nicotinamide] | 1000 to 10000 | < 100 |  |  | 
20 | C[C@H](NC(=O)c1cccnc1NCc1ccc(-c2cnc3[nH]ncc3c2)cc1)c1ccc(F)c(F)c1 [Example 2.39, N-[(S)-1-(3,4-Difluoro-phenyl)-ethyl]-2-[4-(1H-pyrazolo[3,4-b]pyridin-5-yl)benzyl-amino]-nicotinamide] | < 1000 | < 100 |  |  | 
21 | Nc1ncnc2ccc(-c3ccc(CNc4ncc(S(=O)(=O)NCc5cccnc5)cc4C(=O)NCc4ccc(F)c(F)c4)s3)cc12 [Example 8.7.13, 2-(((5-(4-aminoquinazolin-6-yl)thiophen-2-yl)methyl)amino)-N-(3,4-difluorobenzyl)-5-(N-(pyridin-3-ylmethyl)sulfamoyl)nicotinamide] | 1000 to 10000 | 100 to 1000 |  |  | 
22 | C[C@H](NC(=O)c1nc(C#N)cnc1NCc1ccc(-c2ccc3ncnc(N)c3c2)s1)c1ccc(F)c(F)c1 [Ex. 10.9, 3-({[5-(4-aminoquinazolin-6-yl)thiophen-2-yl]methyl}amino)-6-cyano-N-[(1S)-1-(3,4-difluorophenyl)ethyl] pyrazine-2-carboxamide] | < 1000 | 100 to 1000 |  |  | 
23 | C[C@H](NC(=O)c1cc(C#N)cnc1NCc1ccc(-c2ccc3ncc4ncn(C)c4c3c2)s1)c1ccc(F)cc1 [Example 2.28, (S)-5-cyano-N-(1-(4-fluorophenyl)ethyl)-2-(((5-(1-methyl-1H-imidazo[4,5-c]quinolin-8-yl)thiophen-2-yl)methyl)amino) nicotinamide] | < 1000 | < 100 |  |  | 
24 | Nc1n[nH]c2ncc(-c3ccc(CNc4ncc(C(F)(F)F)cc4C(=O)Nc4ccc(F)c(F)c4)cc3)cc12 [Example 263, 2-(4-(3-amino-1H-pyrazolo [3,4-b]pyridin-5-yl)benzylamino)-N-(3,4-difluorophenyl)-5-(trifluoromethyl) nicotinamide] |  |  | < 1000 | < 100 | 
25 | C[C@H](NC(=O)c1cc(C(F)(F)F)cnc1NCc1ccc(-c2cnc3[nH]ncc3c2)cc1)c1ccc(F)c(F)c1 [Example 394, N-[(S)-1-(3,4-Difluoro-phenyl)-ethyl]-2-[4-(1H-pyrazolo [3,4-b]pyridin-5-yl)-benzylamino]-5-trifluoromethyl-nicotinamide] |  |  | < 1000 | < 100 | 
26 | O=C(Nc1ccc(F)c(F)c1)c1cccnc1NCc1cccc(-c2c[nH]c3ncccc23)c1 [Example 1.14, N-(3,4-difluorophenyl)-2-{[3-(1H-pyrrolo[2,3-b]pyridin-3-yl)benzyl]amino}pyridine-3-carboxamide] |  | 100 to 1000 |  |  | EC50 [1, 5]: 1000 to 10000 nM
27 | C[C@@H](c1ccc(F)c(F)c1)n1cnc2c(C#N)cnc(NCc3ccc(-c4ccc5ncnc(N)c5c4)s3)c2c1=O [Ex. 7.25, (S)-5-(((5-(4-aminoquinazolin-6-yl)thiophen-2-yl)methyl)amino)-3-(1-(3,4-difluorophenyl)ethyl)-4-oxo-3,4-dihydropyrido[4,3-d]pyrimidine-8-carbonitrile] | < 1000 | < 100 |  |  | 
28 | C[C@H](NC(=O)c1cc(C#N)cnc1NCc1ccc(-c2ncnc(N)c2F)cc1)c1ccc(F)cc1 [Example 101, (S)-2-(4-(6-amino-5-fluoropyrimidin-4-yl)-benzylamino)-5-cyano-N-(1-(4-fluorophenyl)ethyl)nicotinamide] |  |  | > 10000 | > 5000 | 
